This note sets out measurements from patent US20010031729A1, “Composition comprising carbohydrate and peptide material and its use as an energy supplement after or during physical exercise or as a metabolic nutrient for oral consumption” (priority 1999, published 2001).

The subject of the series is healthy, non-obese male subjects after an overnight fast. In words: First study: insulinotropic effect of test drinks co-ingested with carbohydrate, plasma insulin by radio-immuno-assay. In kind it is in vivo, human. The settings on record: 1st study. From the text: In studies presented below the effects of intact casein, several protein hydrolysates and protein hydrolysate in combination wit specific amino acids have been examined. The sodium casein used in this study is commercially available from DMV-International. Glucose and maltodextrin were obtained from AVEBE (the Netherlands) and crystalline amino acids from BUFA (the Netherlands). In the presented study the following commercially available protein hydrolysates from Quest-International have been used: Hyprol® 3301 (whey protein hydrolysate, average peptide chain length of 4.1), Hyprol® 4107 (wheat gluten protein hydrolysate, average peptide chain length of 12.2) and Hyprol® 7102 (pea protein hydrolysate, average peptide chain length of 6.4). The insulin responses in blood plasma was analysed by radio-immuno-assay (Insulin RIA 100 kit, Pharmacia, Sweden),
In three studies the efficiency of an amino acid and/or protein (hydrolysate) mixture in a carbohydrate containing drink with respect to their insulinotropic effect in human subjects was examined. […]
Eight healthy, non-obese male subjects (age 21±0.4, weight 73.9±2.2 kg, height 186±2 cm, BMI 21.4±0.7 kg·m^−2) after an overnight fast, were tested for 2 hours on 10 occasions in which different beverage compositions were ingested. […] The insulin response is expressed as area under the curve during the second hour. […]

Regarding `NC(=O)CC[C@H](N)C(=O)O` [glutamine], the “Influence of addition of free glutamine on plasma glutamine concentrations” value is recorded as “hardly influenced”. Under “healthy men”, the “Effect on the insulin response of addition to the mixture of arginine, leucine and phenylalanine” value is given as “no effect”.
